Experimental findings from patent US12098148B2, “Therapeutic compounds” (C4X Discovery Limited, priority 2018, dated 2024) are described below.

Read-outs that look alike come from different tables or passages of the source.

In general, IC50 refers to the point on the concentration scale where inhibition reaches its midpoint. In general, EC50 refers to the concentration needed to bring the measured effect to its halfway point.

The target of assay [1] is human KEAP1 (N-term, residues 321-609) (Homo sapiens, UniProt Q14145). The experiment in a line: biochemical.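 Further: fluorescence polarization competition assay of Kelch domain binding to NRF2, 12-point 1:3 dilution series from 10 µM, read after 1 h at room temperature, floor 10 nM.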
human KEAP1 (N-term, residues 321-609), sequence (Q14145 321-609): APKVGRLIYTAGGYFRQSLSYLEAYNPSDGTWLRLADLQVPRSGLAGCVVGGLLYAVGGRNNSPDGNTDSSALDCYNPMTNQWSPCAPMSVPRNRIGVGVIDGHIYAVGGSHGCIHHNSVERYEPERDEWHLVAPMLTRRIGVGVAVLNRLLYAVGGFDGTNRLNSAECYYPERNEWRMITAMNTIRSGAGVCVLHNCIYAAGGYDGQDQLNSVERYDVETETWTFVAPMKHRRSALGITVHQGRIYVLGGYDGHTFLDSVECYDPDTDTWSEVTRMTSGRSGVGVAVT
Assay [2] concerns NQO1 mRNA in BEAS-2B cells. The experiment in a line: Beas2B NQO1 mRNA cell based assay. Also noted: species or system human. The settings on record: 24 h compound treatment, increase in NQO1 mRNA vs vehicle (0.1% DMSO), read-out: EC50. An outline of the steps:
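Relative NQO1 transcript level derived by ΔΔCT with human β-actin as internal control, using direct-lysate one-step RT-qPCR. Cells were BEAS-2B, plated overnight then treated with compound for 24 h.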

Consider `CC1CCN(C[C@@H]2c3c(OCc4cn(C(C)C)nn4)ccc(Br)c3CCN2C(=O)[C@@H]2CCCC[C@@H]2C(=O)O)C1=O` (single isomer, unassigned) [Example 74], for which, in assay [1], half-maximal inhibition (IC50) was put at 6.8 nM. Besides, the EC50 in assay [2] was determined as 22 nM.

For the molecule `Cc1c(COc2ccc(Cl)c3c2[C@@H](CN2CCCC2=O)N(C(=O)[C@@H]2CCCC[C@]2(C)C(=O)O)CC3)nnn1C` [Example 107, (1S,2R)-2-((S)-5-Chloro-8-((1,5-dimethyl-1H-1,2,3-triazol-4-yl)methoxy)-1-((2-oxopyrrolidin-1-yl)methyl)-1,2,3,4-tetrahydroisoquinoline-2-carbonyl)-1-methylcyclohexane-1-carboxylic acid], 6.6 nM corresponded to half-maximal inhibition in assay [1] (IC50). Besides, in assay [2] (Homo sapiens, BEAS-2B, 24 h), the EC50 turned out to be 0.35 nM.

Molecule `Cc1scnc1COc1ccc(Cl)c2c1[C@@H](CN1CC3(CC3)CC1=O)N(C(=O)[C@@H]1CCCC[C@]1(C)C(=O)O)CC2` [Example 205, (1S,2R)-2-((S)-5-chloro-8-((5-methylthiazol-4-yl)methoxy)-1-((6-oxo-5-azaspiro[2.4]heptan-5-yl)methyl)-1,2,3,4-tetrahydroisoquinoline-2-carbonyl)-1-methylcyclohexane-1-carboxylic acid] showed an IC50 in assay [1] of 5.5 nM. Also, in assay [2] (Homo sapiens, BEAS-2B, 24 h), the EC50 is 19 nM.

In the case of `O=C(O)[C@H]1CCCC[C@H]1C(=O)N1CCc2c(Cl)ccc(OCc3ccccn3)c2[C@H]1CN1CCCC1=O` [Example 69, (1S,2R)-2-((S)-5-chloro-1-((2-oxopyrrolidin-1-yl)methyl)-8-(pyridin-2-ylmethoxy)-1,2,3,4-tetrahydroisoquinoline-2-carbonyl) cyclohexane-1-carboxylic acid], the IC50 in assay [1] was 6.9 nM. Besides, in assay [2] (Homo sapiens, BEAS-2B, 24 h), the EC50 was 140 nM.

On to `Cn1nnc(COc2ccc(Cl)c3c2[C@@H](CN2CCCC2=O)N(C(=O)[C@@H]2CCCC[C@]2(C)C(=O)O)CC3)c1C(F)F` [Example 91, (1S,2R)-2-((S)-5-Chloro-8-((5-(difluoromethyl)-1-methyl-1H-1,2,3-triazol-4-yl)methoxy)-1-((2-oxopyrrolidin-1-yl)methyl)-1,2,3,4-tetrahydroisoquinoline-2-carbonyl)-1-methylcyclohexane-1-carboxylic acid], for which the IC50 in assay [1] stood at 6.1 nM. Moreover, in assay [2] (Homo sapiens, BEAS-2B, 24 h), the EC50 was determined as 0.21 nM.

In assay [1], `Cc1c(COc2ccc(Cl)c3c2[C@@H](CN2CC4(CC4)CC2=O)N(C(=O)[C@@H]2CCCC[C@]2(C)C(=O)O)CC3)nnn1C` [Example 156, (1S,2R)-2-((S)-5-chloro-8-((1,5-dimethyl-1H-1,2,3-triazol-4-yl)methoxy)-1-((6-oxo-5-azaspiro[2.4]heptan-5-yl)methyl)-1,2,3,4-tetrahydroisoquinoline-2-carbonyl)-1-methylcyclohexane-1-carboxylic acid] showed an IC50 of 5.1 nM. The EC50 in assay [2] (Homo sapiens, BEAS-2B, 24 h) amounted to 0.29 nM.

On to `O=C(O)[C@H]1CCCC[C@H]1C(=O)N1CCc2c(Cl)ccc(OCc3cn4cccnc4n3)c2[C@H]1CN1CCCC1=O` [Example 92, (1S,2R)-2-((S)-5-Chloro-8-(imidazo[1,2-a]pyrimidin-2-ylmethoxy)-1-((2-oxopyrrolidin-1-yl)methyl)-1,2,3,4-tetrahydroisoquinoline-2-carbonyl) cyclohexane-1-carboxylic acid], for which the IC50 in assay [1] came out at 15 nM. Further, in assay [2] (Homo sapiens, BEAS-2B, 24 h), the EC50 was 180 nM.

`CC(C)n1nnc(COc2ccc(Cl)c3c2[C@@H](CN2CCCC2=O)N(C(=O)[C@@H]2CCC[C@]2(C)C(=O)O)CC3)c1C(F)F` [Example 122, (1S,2R)-2-((S)-5-chloro-8-((5-(difluoromethyl)-1-isopropyl-1H-1,2,3-triazol-4-yl)methoxy)-1-((2-oxopyrrolidin-1-yl)methyl)-1,2,3,4-tetrahydroisoquinoline-2-carbonyl)-1-methylcyclopentane-1-carboxylic acid] yielded a half-inhibitory concentration (IC50) in assay [1] of 9.7 nM. In addition, the EC50 in assay [2] (Homo sapiens, BEAS-2B, 24 h) was 86 nM.

As for `COCCn1nnc(COc2ccc(Cl)c3c2[C@@H](CN2CCCC2=O)N(C(=O)[C@@H]2CCCC[C@]2(C)C(=O)O)CC3)c1C(F)F` [Example 145, (1S,2R)-2-((S)-5-chloro-8-((5-(difluoromethyl)-1-(2-methoxyethyl)-1H-1,2,3-triazol-4-yl)methoxy)-1-((2-oxopyrrolidin-1-yl)methyl)-1,2,3,4-tetrahydroisoquinoline-2-carbonyl)-1-methylcyclohexane-1-carboxylic acid], inhibition in assay [1] was half-maximal at 6.4 nM (IC50). The EC50 in assay [2] (Homo sapiens, BEAS-2B, 24 h) turned out to be 4.9 nM.

In turn, `C[C@@H]1CCN(C[C@@H]2c3c(OCc4nnn(C)c4C(F)(F)F)ccc(Cl)c3CCN2C(=O)[C@@H]2CCCC[C@]2(C)C(=O)O)C1=O` [Example 131, (1S,2R)-2-((S)-5-chloro-1-(((R)-3-methyl-2-oxopyrrolidin-1-yl)methyl)-8-((1-methyl-5-(trifluoromethyl)-1H-1,2,3-triazol-4-yl)methoxy)-1,2,3,4-tetrahydroisoquinoline-2-carbonyl)-1-methylcyclohexane-1-carboxylic acid] displayed an IC50 in assay [1] of 12 nM. In addition, in assay [2] (Homo sapiens, BEAS-2B, 24 h), the EC50 was 200 nM.

In the case of `Cc1noc2nc(COc3ccc(Cl)c4c3[C@@H](CN3CCCC3=O)N(C(=O)[C@@H]3CCCC[C@@H]3C(=O)O)CC4)ccc12` [Example 95, (1S,2R)-2-((S)-5-Chloro-8-((3-methylisoxazolo[5,4-b]pyridin-6-yl)methoxy)-1-((2-oxopyrrolidin-1-yl)methyl)-1,2,3,4-tetrahydroisoquinoline-2-carbonyl) cyclohexane-1-carboxylic acid], the IC50 in assay [1] turned out to be 8 nM. In addition, the EC50 in assay [2] (Homo sapiens, BEAS-2B, 24 h) was determined as 3.7 nM.

In assay [1], `Cn1ccc(COc2ccc(Cl)c3c2[C@@H](CN2CC4(CC4)CC2=O)N(C(=O)[C@@H]2CCCC[C@]2(C)C(=O)O)CC3)cc1=O` [Example 148, (1S,2R)-2-((S)-5-chloro-8-((1-methyl-2-oxo-1,2-dihydropyridin-4-yl)methoxy)-1-((6-oxo-5-azaspiro[2.4]heptan-5-yl)methyl)-1,2,3,4-tetrahydroisoquinoline-2-carbonyl)-1-methylcyclohexane-1-carboxylic acid] registered an IC50 of 6.6 nM. Moreover, in assay [2] (Homo sapiens, BEAS-2B, 24 h), the EC50 came to 22 nM.

In the case of `Cn1nnc2cc(COc3ccc(Cl)c4c3[C@@H](CN3CCCC3=O)N(C(=O)[C@@H]3CCCC[C@@H]3C(=O)O)CC4)ccc21` [Example 90, (1S,2R)-2-((S)-5-Chloro-8-((1-methyl-1H-benzo [d][1,2,3]triazol-5-yl)methoxy)-1-((2-oxopyrrolidin-1-yl)methyl)-1,2,3,4-tetrahydroisoquinoline-2-carbonyl)cyclohexane-1-carboxylic acid], the IC50 in assay [1] was found to be 9.1 nM. The EC50 in assay [2] (Homo sapiens, BEAS-2B, 24 h) came out at 8.1 nM.

For `Cn1nnc(COc2ccc(Cl)c3c2[C@@H](CN2CCCC2=O)N(C(=O)C2CCOC2C(=O)O)CC3)c1C(F)F` (stereo partly drawn) [Example 97, 3-((S)-5-chloro-8-((5-(difluoromethyl)-1-methyl-1H-1,2,3-triazol-4-yl)methoxy)-1-((2-oxopyrrolidin-1-yl)methyl)-1,2,3,4-tetrahydroisoquinoline-2-carbonyl) tetrahydrofuran-2-carboxylic acid], the IC50 in assay [1] is 17 nM. For the same molecule, in assay [2] (Homo sapiens, BEAS-2B, 24 h), the EC50 worked out at 750 nM.

For the molecule `Cn1nnc(COc2ccc(Cl)c3c2[C@@H](CN2CC(C(F)(F)F)CC2=O)N(C(=O)[C@@H]2CCCC[C@]2(C)C(=O)O)CC3)c1C(F)F` (single isomer, unassigned) [Example 212], the IC50 in assay [1] was determined as 5.7 nM. Moreover, in assay [2] (Homo sapiens, BEAS-2B, 24 h), the EC50 came to 1.9 nM.

Turning to `Cc1onc(COc2ccc(Cl)c3c2[C@@H](CN2CC4(CC4)CC2=O)N(C(=O)[C@@H]2CCCC[C@]2(C)C(=O)O)CC3)c1C(F)(F)F` [Example 154, (1S,2R)-2-((S)-5-chloro-8-((5-methyl-4-(trifluoromethyl)isoxazol-3-yl)methoxy)-1-((6-oxo-5-azaspiro[2.4]heptan-5-yl)methyl)-1,2,3,4-tetrahydroisoquinoline-2-carbonyl)-1-methylcyclohexane-1-carboxylic acid], half-maximal inhibition in assay [1] (IC50) required 9.3 nM. Also, the EC50 in assay [2] (Homo sapiens, BEAS-2B, 24 h) is 18 nM.

The molecule `O=C(O)[C@H]1CCCC[C@H]1C(=O)N1CCc2c(Cl)ccc(OCc3nnc4ccccn34)c2[C@H]1CN1CCCC1=O` [Example 94, (1S,2R)-2-((S)-8-([1,2,4]Triazolo[4,3-a]pyridin-3-ylmethoxy)-5-chloro-1-((2-oxopyrrolidin-1-yl)methyl)-1,2,3,4-tetrahydroisoquinoline-2-carbonyl) cyclohexane-1-carboxylic acid] registered an IC50 in assay [1] of 7.7 nM. Also, the EC50 in assay [2] (Homo sapiens, BEAS-2B, 24 h) stood at 7.8 nM.

Molecule `O=C(O)[C@H]1CCCC[C@H]1C(=O)N1CCc2cccc(O[C@H]3CCN(C(=O)c4cncs4)C3)c2[C@H]1CN1Cc2ccccc2C1=O` [Example 15, (1S,2R)-2-((S)-1-((1-Oxoisoindolin-2-yl)methyl)-8-(((S)-1-(thiazole-5-carbonyl)pyrrolidin-3-yl)oxy)-1,2,3,4-tetrahroisoquinoline-2-carbonyl)cyclohexane-1-carboxylic acid] displayed an IC50 in assay [1] of 5.1 nM. In addition, the EC50 in assay [2] (Homo sapiens, BEAS-2B, 24 h) came to 850 nM.

With `Cn1nnc2cc(COc3cccc4c3[C@@H](CN3C(=O)c5ccccc5C3=O)N(C(=O)[C@@H]3CCCC[C@@H]3C(=O)O)CC4)ccc21` [Example 8, (1S,2R)-2-((S)-1-((1,3-Dioxoisoindolin-2-yl)methyl)-8-((1-methyl-1H-benzo[d][1,2,3]triazol-5-yl)methoxy)-1,2,3,4-tetrahydroisoquinoline-2-carbonyl)cyclohexane-1-carboxylic acid], the IC50 in assay [1] worked out at 8.2 nM. Further, the EC50 in assay [2] (Homo sapiens, BEAS-2B, 24 h) worked out at 48 nM.

`C[C@]1(C(=O)O)CCCC[C@H]1C(=O)N1CCc2c(Cl)ccc(OCc3nnc4n3CCC4)c2[C@H]1CN1CC2(CC2)CC1=O` [Example 183, (1S,2R)-2-((S)-5-chloro-8-((6,7-dihydro-5H-pyrrolo[2,1-c][1,2,4]triazol-3-yl)methoxy)-1-((6-oxo-5-azaspiro [2.4]heptan-5-yl)methyl)-1,2,3,4-tetrahydroisoquinoline-2-carbonyl)-1-methylcyclohexane-1-carboxylic acid] returned an IC50 in assay [1] of 5.4 nM. In addition, the EC50 in assay [2] (Homo sapiens, BEAS-2B, 24 h) turned out to be 5.8 nM.
